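Dose response: 5 concentrations. Exposure: 48 h. Format: 96-well plates. Endpoint: linear interpolation; highest concentration if not reached. GI50: concentration for 50% inhibition of growth.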 Activity calls are given as the source filed them. No stated cut-off is given here; in the data, active = GI50 up to about 1.1 µM and inactive = higher.
Legend:
Test in all cases: NCI tumour cell line growth inhibition, 48 h
[1] = test system: 786-0
[2] = test system: A498
[3] = test system: A549
[4] = test system: ACHN
[5] = test system: BT-549
[6] = test system: CAKI-1
[7] = test system: CCRF-CEM
[8] = test system: COLO 205
[9] = test system: DU-145
[10] = test system: EKVX
[11] = test system: HCC 2998
[12] = test system: HCT-116
[13] = test system: HCT-15
[14] = test system: HOP-62
[15] = test system: HOP-92
[16] = test system: HT-29
[17] = test system: Hs-578T
[18] = test system: IGROV-1
[19] = test system: K562
[20] = test system: KM12
[21] = test system: LOX IMVI
[22] = test system: M14
[23] = test system: MCF7
[24] = test system: MDA-MB-231
[25] = test system: MDA-MB-435
[26] = test system: MOLT-4
[27] = test system: NCI-H226
[28] = test system: NCI-H23
[29] = test system: NCI-H522
[30] = test system: NCI/ADR-RES
[31] = test system: OVCAR-3
[32] = test system: OVCAR-4
[33] = test system: OVCAR-5
[34] = test system: OVCAR-8
[35] = test system: PC-3
[36] = test system: RPMI-8226
[37] = test system: RXF 393
[38] = test system: SF-268
[39] = test system: SF-295
[40] = test system: SF-539
[41] = test system: SK-MEL-28
[42] = test system: SK-MEL-2
[43] = test system: SK-MEL-5
[44] = test system: SK-OV-3
[45] = test system: SN12C
[46] = test system: SNB-19
[47] = test system: SNB-75
[48] = test system: SW-620
[49] = test system: T47D
[50] = test system: TK-10
[51] = test system: U-251
[52] = test system: UACC-257
[53] = test system: UACC-62
[54] = test system: UO-31
[55] = test system: Malme-3M
[56] = test system: NCI-H460
[57] = test system: SR

NC1CC(=O)c2ccccc21 (stereo unspecified)
GI50 [1]: > 100 µM (inactive)
GI50 [2]: > 100 µM (inactive)
GI50 [3]: > 100 µM (inactive)
GI50 [4]: > 100 µM (inactive)
GI50 [5]: > 100 µM (inactive)
GI50 [6]: > 100 µM (inactive)
GI50 [7]: > 100 µM (inactive)
GI50 [8]: > 100 µM (inactive)
GI50 [9]: > 100 µM (inactive)
GI50 [10]: > 100 µM (inactive)
GI50 [11]: > 100 µM (inactive)
GI50 [12]: > 100 µM (inactive)
GI50 [13]: > 100 µM
GI50 [14]: > 100 µM (inactive)
GI50 [15]: > 100 µM (inactive)
GI50 [16]: > 100 µM (inactive)
GI50 [17]: > 100 µM (inactive)
GI50 [18]: > 100 µM (inactive)
GI50 [19]: > 100 µM (inactive)
GI50 [20]: > 100 µM (inactive)
GI50 [21]: > 100 µM (inactive)
GI50 [22]: > 100 µM (inactive)
GI50 [23]: > 100 µM (inactive)
GI50 [24]: > 100 µM (inactive)
GI50 [25]: > 100 µM (inactive)
GI50 [26]: > 100 µM (inactive)
GI50 [27]: > 100 µM (inactive)
GI50 [28]: > 100 µM (inactive)
GI50 [29]: > 100 µM (inactive)
GI50 [30]: > 100 µM (inactive)
GI50 [31]: > 100 µM (inactive)
GI50 [32]: > 100 µM (inactive)
GI50 [33]: > 100 µM (inactive)
GI50 [34]: > 100 µM (inactive)
GI50 [35]: > 100 µM (inactive)
GI50 [36]: > 100 µM (inactive)
GI50 [37]: > 100 µM (inactive)
GI50 [38]: > 100 µM (inactive)
GI50 [39]: > 100 µM (inactive)
GI50 [40]: > 100 µM (inactive)
GI50 [41]: > 100 µM (inactive)
GI50 [42]: > 100 µM (inactive)
GI50 [43]: > 100 µM (inactive)
GI50 [44]: > 100 µM (inactive)
GI50 [45]: > 100 µM (inactive)
GI50 [46]: > 100 µM (inactive)
GI50 [47]: > 100 µM (inactive)
GI50 [48]: > 100 µM (inactive)
GI50 [49]: > 100 µM (inactive)
GI50 [50]: > 100 µM (inactive)
GI50 [51]: > 100 µM (inactive)
GI50 [52]: > 100 µM (inactive)
GI50 [53]: > 100 µM (inactive)
GI50 [54]: > 100 µM (inactive)

COc1cc2c(cc1O)NC(=O)[C@@H]1C[C@@H](O)CN1C2=O
GI50 [1]: 52 µM (inactive)
GI50 [2]: > 100 µM (inactive)
GI50 [3]: > 100 µM (inactive)
GI50 [4]: 74.6 µM (inactive)
GI50 [5]: 86.1 µM (inactive)
GI50 [6]: 78 µM (inactive)
GI50 [7]: 28.4 µM (inactive)
GI50 [8]: > 100 µM (inactive)
GI50 [9]: > 100 µM (inactive)
GI50 [10]: > 100 µM (inactive)
GI50 [11]: > 100 µM (inactive)
GI50 [12]: 49 µM (inactive)
GI50 [13]: 50.7 µM
GI50 [14]: 27.4 µM (inactive)
GI50 [15]: > 100 µM (inactive)
GI50 [16]: 72.6 µM (inactive)
GI50 [17]: 43.8 µM (inactive)
GI50 [18]: > 100 µM (inactive)
GI50 [19]: 57.7 µM (inactive)
GI50 [20]: 53.6 µM (inactive)
GI50 [21]: 40.2 µM (inactive)
GI50 [22]: 72.1 µM (inactive)
GI50 [23]: > 100 µM (inactive)
GI50 [24]: > 100 µM (inactive)
GI50 [25]: 91.6 µM (inactive)
GI50 [26]: 37.6 µM (inactive)
GI50 [55]: > 100 µM (inactive)
GI50 [27]: > 100 µM (inactive)
GI50 [28]: > 100 µM (inactive)
GI50 [56]: 72.4 µM (inactive)
GI50 [29]: 33.8 µM (inactive)
GI50 [30]: 11.4 µM (inactive)
GI50 [31]: 29.2 µM (inactive)
GI50 [32]: > 100 µM (inactive)
GI50 [33]: > 100 µM (inactive)
GI50 [34]: 98.2 µM (inactive)
GI50 [35]: 43.8 µM (inactive)
GI50 [36]: 45.6 µM (inactive)
GI50 [37]: > 100 µM (inactive)
GI50 [38]: 88.1 µM (inactive)
GI50 [39]: 27 µM (inactive)
GI50 [40]: 43.8 µM (inactive)
GI50 [41]: > 100 µM (inactive)
GI50 [42]: > 100 µM (inactive)
GI50 [43]: 58.1 µM (inactive)
GI50 [44]: > 100 µM (inactive)
GI50 [45]: > 100 µM (inactive)
GI50 [46]: > 100 µM (inactive)
GI50 [47]: > 100 µM (inactive)
GI50 [57]: 39.9 µM (inactive)
GI50 [48]: 64.3 µM (inactive)
GI50 [49]: > 100 µM (inactive)
GI50 [50]: > 100 µM (inactive)
GI50 [51]: 79.3 µM (inactive)
GI50 [52]: > 100 µM (inactive)
GI50 [53]: > 100 µM (inactive)
GI50 [54]: 64.4 µM (inactive)

Reference: ChEMBL document CHEMBL1201862, “PubChem BioAssay data set” (2004)
